# Test results from patent US5129937A, “Pyridyloxypyrimidine derivatives, preparation process thereof, and herbicidal compositions containing the same as active ingredients” (Mitsui Toatsu Chemicals Incorporated, priority 1989, dated 1992).
# Legend:
# Corn (Zea maize) = experiment: Upland Foliar Application Test, crop injury; assay type: in vivo; details: 30 g ai/a; foliar application at 2-3 leaf stage, emulsion; observed on the 30th day
# Excerpt: (§1) Resin-made 1/10000-are pots were filled with the soil of an upland field. Redroot pigweed, morningglory (Ipomoea pupurea), common lambsquarters, foxtail meadow, johnsongrass, barnyardgrass, green foxtail, large crabgrass, soybean, corn and cotton were separately seeded and were allowed to germinate in a green house. When each plant grew to the stage of 2-3 leaves, an emulsion formulated from a predetermined amount of each test compound in a similar manner to the method described in Formulation Example 11 was diluted with water and then sprayed at a predetermined application rate by means of a pressure-operated ULV (ultra low volume) sprayer. The application rate was controlled at 5 l per are. Influence to the crops and weeds were observed on the 30th day after the spray of the herbicides. The results are shown in Table 4 in which the degree of damages of each test plant and the degree of injury to each crop are shown in a similar manner to Test 2.
# [1] = test system: Cotton (Gossypium indicum); experiment: Upland Foliar Application Test, crop injury; assay type: in vivo; details: 30 g ai/a; foliar application at 2-3 leaf stage, emulsion; observed on the 30th day
# Excerpt: as §1
# Soybean (Glycine max) = experiment: Upland Foliar Application Test, crop injury; assay type: in vivo; details: 30 g ai/a; foliar application at 2-3 leaf stage, emulsion; observed on the 30th day
# Excerpt: as §1
# Rice (Oryza sativa) [2] = experiment: Submerged Soil Treatment Test (Growth Stage Treatment), crop injury; assay type: in vivo; details: 30 g ai/a, growth stage treatment (barnyardgrass two-leaf stage), granule, transplanted rice, observed 30 days later
# Protocol: (§2) 1/5000-are Wagner pots were filled with soil. Seeds or tubers of barnyardgrass, bulrush and Sagittaria pygmaea were seeded or planted under submerged condition. Two pairs of rice seedlings (2-3 leaf stage), which had been reared in advance, were transplanted to each pot and were allowed to grow in a green house. Each pair consisted of two rice seedlings. When the barnyardgrass grew to the two-leaf stage, each pot was treated with a granule which had been prepared by processing a predetermined amount of the test composition in accordance with a similar method to the method described in Formulation Example 9. The state of emergence of weeds and the state of injury of rice were observed 30 days later. In the table, the degrees of damages of the test plants and the degrees of injury of the rice are shown in a similar manner to Example 2.
# [3] = test system: Crabgrass (Digitaria adsendens); experiment: Upland Soil Application Test; assay type: in vivo; details: 30 g ai/a; soil application before emergence, wettable powder; observed 30 days later
# Protocol: Resin-made 1/2500-are pots were filled with the soil of an upland field. After they were fertilized, soybean, corn and cotton were seeded and 2-3 cm soil covering was applied. Seeds of redroot pigweed, morningglory (Ipomoea purpurea), common lambsquarters, barnyardgrass, green foxtail, large crabgrass, foxtail meadow and johnsongrass had been uniformly mixed with the soil. They were allowed to germinate in a green house. One day later (before emergence of weeds), a wettable powder prepared from a predetermined amount of each test compound in a similar manner to the method described in Formulation Example 1 was diluted with water and then sprayed evenly at an application rate equal to 10 l per are onto the surface of the soil by means of a pressure-operated ULV (ultra low volume) sprayer. Influence to the crops and weeds were observed 30 days later. The results are shown in Table 3, in which the degree of damages of each test plant and the degree of injury to each crop were determined by comparing the air-dried weights of the test plant and crop with those of the corresponding plant and crop in untreated pots and are shown in accordance with the following standard: […]
# [4] = test system: ALS (acetolactate synthase); experiment: ALS (Acetolactate Synthase) Inhibition Test, barnyardgrass enzyme; assay type: biochemical; details: enzymoreaction inhibition rate at 10 ppm (5 μg/0.5 ml)
# Protocol: To determine the selectivity in enzyme level between crops and weeds, an ALS inhibition test was conducted using pea as a representative of broadleaf crops and barnyardgrass as a representative of gramineous weeds.
# After seeds of pea and barnyardgrass were allowed to germinate at 25° C. for 8-14 days in a dark place, partially-purified suspensions (Suspensions A) of acetolactate syntase were separately obtained from seedlings in accordance with the method described in the literature, Plant Physiology, 75, 827-831. In a test tube, […], followed by the addition of 0.15 ml of a 20 mM K2 HPO4 solution and 0.25 ml of a reaction substrate medium which consisted of 40 mM of K2 HPO4, 40 mM of sodium pyruvate, 1 mM of TPP, 1 mM of MgCl2 and 20 μM of FAD so that 0.4 ml of a reaction solution (Solution B) was prepared. Added to 0.4 ml of Solution B was 0.1 ml of Suspension A. After the resultant mixture was shaken for 1 hour in a thermostat water bath controlled at 30° C., 50 μl of 6N sulfuric acid were added to terminate the reaction.
# Next, the reaction-terminated liquid mixture was transferred into a thermostat water bath controlled at 60° C. and was heated for 15 minutes. Thereafter, 0.5 ml of a 0.5% creatine solution and 0.5 ml of a 5% alkaline α-naphthol solution were added, and the resultant mixture was maintained at 60° C. for 15 minutes. As a result, the test solution developed a pink-red color. After the above operation, the absorbance of the test solution at 525 nm was measured by a spectrophotometer (Absorbance 1 of Test Compound).
# On the other hand, the absorbance (Absorbance 2 of Blank) of a solution obtained by subjecting a portion of Solution B, said portion being free of the test compound, to the above operation and the absorbance (Absorbance 3 of sulfuric acid terminated) of another solution obtained by subjecting another portion of Solution B, said portion containing 50 μl of 6N sulfuric acid as a test compound, were measured at the same time. […] [formula]
# Rice (Oryza sativa) [5] = experiment: Submerged Soil Treatment Test (Pre-Emergence Treatment), crop injury; assay type: in vivo; details: 30 g ai/a, granule, transplanted rice, observed 30 days later
# Protocol: as §2, with “allowed to germinate in a” for “allowed to grow in a”, “rice seedlings. On day later (before emergence of weeds), each pot” for “rice seedlings. When the barnyardgrass grew to the two-leaf stage, each pot”, “injury of rice are” for “injury of the rice are”
# [6] = test system: Arrowhead sp. (Sagittaria pygmaea); experiment: Submerged Soil Treatment Test (Pre-Emergence Treatment); assay type: in vivo; details: 30 g ai/a, granule, observed 30 days later
# Protocol: as §2, with “allowed to germinate in a” for “allowed to grow in a”, “rice seedlings. On day later (before emergence of weeds), each pot” for “rice seedlings. When the barnyardgrass grew to the two-leaf stage, each pot”, “injury of rice are” for “injury of the rice are”
# [7] = test system: Bulrush (Scirpus juncoides); experiment: as above; assay type: in vivo; details: 30 g ai/a, granule, observed 30 days later
# Protocol: as §2, with “allowed to germinate in a” for “allowed to grow in a”, “rice seedlings. On day later (before emergence of weeds), each pot” for “rice seedlings. When the barnyardgrass grew to the two-leaf stage, each pot”, “injury of rice are” for “injury of the rice are”
# [8] = test system: Barnyardgrass (Echinochloa crus-galli); experiment: as above; assay type: in vivo; details: 30 g ai/a, granule, observed 30 days later
# Protocol: as §2, with “allowed to germinate in a” for “allowed to grow in a”, “rice seedlings. On day later (before emergence of weeds), each pot” for “rice seedlings. When the barnyardgrass grew to the two-leaf stage, each pot”, “injury of rice are” for “injury of the rice are”
# [9] = test system: Arrowhead sp. (Sagittaria pygmaea); experiment: Submerged Soil Treatment Test (Growth Stage Treatment); assay type: in vivo; details: 30 g ai/a, growth stage treatment (barnyardgrass two-leaf stage), granule, observed 30 days later
# Protocol: as §2
# [10] = test system: Bulrush (Scirpus juncoides); experiment: as above; assay type: in vivo; details: 30 g ai/a, growth stage treatment (barnyardgrass two-leaf stage), granule, observed 30 days later
# Protocol: as §2
# [11] = test system: Barnyardgrass (Echinochloa crus-galli); experiment: as above; assay type: in vivo; details: 30 g ai/a, growth stage treatment (barnyardgrass two-leaf stage), granule, observed 30 days later
# Protocol: as §2
SMILES,Crop injury Corn (Zea maize) (Corn (Zea maize)),Crop injury Cotton (Gossypium indicum) [1],Crop injury Soybean (Glycine max) (Soybean (Glycine max)),Crop injury Rice (Oryza sativa) (Rice (Oryza sativa) [2]),Herbicidal effects Crabgrass (Digitaria adsendens) [3],Inhibition rate (%) Barnyardgrass [4] [%],Crop injury Rice (Oryza sativa) (Rice (Oryza sativa) [5]),Herbicidal effects Arrowhead sp. (Sagittaria pygmaea) [6],Herbicidal effects Bulrush (Scirpus juncoides) [7],Herbicidal effects Barnyardgrass (Echinochloa crus-galli) [8],Herbicidal effects Arrowhead sp. (Sagittaria pygmaea) [9],Herbicidal effects Bulrush (Scirpus juncoides) [10],Herbicidal effects Barnyardgrass (Echinochloa crus-galli) [11]
COc1cc(OC)nc(Oc2cccnc2C2OCCCO2)n1 [Compound No. 8],0 (91-100 (No damages)),0 (91-100 (No damages)),0 (91-100 (No damages)),0 (91-100 (No damages)),3 (11-40 (Medium damages)),86,0 (91-100 (No damages)),4 (6-10 (Severe damages)),4 (6-10 (Severe damages)),5 (0-5 (Death)),2 (41-70 (Small damages)),2 (41-70 (Small damages)),4 (6-10 (Severe damages))
CCCCOC(OCCCC)c1ncccc1Oc1nc(OC)cc(OC)n1 [Compound No. 4],0 (91-100 (No damages)),0 (91-100 (No damages)),0 (91-100 (No damages)),0 (91-100 (No damages)),5 (0-5 (Death)),94,0 (91-100 (No damages)),5 (0-5 (Death)),5 (0-5 (Death)),5 (0-5 (Death)),4 (6-10 (Severe damages)),4 (6-10 (Severe damages)),5 (0-5 (Death))
"COc1cc(OC)nc(Oc2cccnc2C(OC)OC(C)C)n1 (centres unmarked) [Compound No. 5, 3-(4.6-dimethoxy-2-pyrimidinyloxy)-2-pyridinecarboxaldehyde isopropylmethylacetal]",0 (91-100 (No damages)),0 (91-100 (No damages)),0 (91-100 (No damages)),0 (91-100 (No damages)),4 (6-10 (Severe damages)),100,0 (91-100 (No damages)),5 (0-5 (Death)),5 (0-5 (Death)),5 (0-5 (Death)),5 (0-5 (Death)),5 (0-5 (Death)),5 (0-5 (Death))
"COc1cc(OC)nc(Oc2cccnc2C=O)n1 [Compound No. 1, 4,6-dimethoxy-2-(2-formyl-3-pyridyloxy)pyrimidine]",0 (91-100 (No damages)),0 (91-100 (No damages)),1 (71-90 (Slight damages)),1 (71-90 (Slight damages)),2 (41-70 (Small damages)),100,1 (71-90 (Slight damages)),4 (6-10 (Severe damages)),4 (6-10 (Severe damages)),4 (6-10 (Severe damages)),4 (6-10 (Severe damages)),5 (0-5 (Death)),5 (0-5 (Death))
"CCOC(OCC)c1ncccc1Oc1nc(OC)cc(OC)n1 [Compound No. 3, 3-(4,6-dimethoxy-2-pyrimidinyloxy)-2-pyridinecarboxaldehyde diethylacetal]",0 (91-100 (No damages)),0 (91-100 (No damages)),0 (91-100 (No damages)),0 (91-100 (No damages)),4 (6-10 (Severe damages)),84,0 (91-100 (No damages)),5 (0-5 (Death)),5 (0-5 (Death)),5 (0-5 (Death)),5 (0-5 (Death)),5 (0-5 (Death)),5 (0-5 (Death))
